Where a name gives a salt, the structure may show the parent alone.

One assay concerns tactile allodynia in the rat Chung model. Description: Chung model: reversal of tactile allodynia (von Frey hairs) after spinal nerve ligation. The settings on record: Rattus norvegicus, ip, 0.5 h, 300 μg/kg IP, peak at 30 min post dose, read-out: Peak % Pain reversal: time post dose. The format is in vivo. The text has this: An art-accepted model or assay for measuring an analgesic effect of a compound in chronic pain (in particular peripheral neuropathy) is the model known as Kim and Chung 1992, Pain […], pp 355-363 (Chung model). This model involves the surgical ligation of the L5 (and optionally the L6) spinal nerves on one side in experimental animals. Rats recovering from the surgery gain weight and display a level of general activity similar to that of normal rats. However, these rats develop abnormalities of the foot, wherein the hindpaw is moderately everted and the toes are held together. More importantly, the hindpaw on the side affected by the surgery appears to become sensitive to low-threshold mechanical stimuli and will perceive pain instead of the faint sensation of touch. This sensitivity to normally non-painful touch, called “tactile allodynia”, develops within the first week after surgery and lasts for at least two months. The allodynia response includes lifting the affected hindpaw to escape from the stimulus, licking the paw and holding it in the air for many seconds. None of these responses is normally seen in the control group.
To produce the tactile allodynia, rats are anesthetized before surgery. The surgical site is shaved and prepared either with betadine or Novacaine. Incision is made from the thoracic vertebra X111 down toward the sacrum. Muscle tissue is separated from the spinal vertebra (left side) at the L4-S2 levels. The L6 vertebra is located and the transverse process is carefully removed with a small rongeur to expose the L4-L6 spinal nerves. The L5 and L6 spinal nerves are isolated and tightly ligated with 6-0 silk thread. The same procedure is done on the right side as a control, except no ligation of the spinal nerves is performed.
After a complete hemostasis is confirmed, the wounds are sutured. A small amount of antibiotic ointment is applied to the incised area, and the rat is transferred to the recovery plastic cage under a regulated heat-temperature lamp.
On the day of the experiment, at least seven days after the surgery, typically six rats per test group are administered the test drugs by intraperitoneal (i.p.) injection or oral gavage (p.o.). For i.p. administration, the compounds are formulated in H2O and given in a volume of 1 ml/kg body weight by injecting into the intraperitoneal cavity. For p.o. administration, the compounds are formulated in H2O and given in a volume of 1 ml/kg body weight using an 18-gauge, 3 inch gavage needle that is slowly inserted through the esophagus into the stomach.
Tactile allodynia is assessed via von Frey hairs, which are a series of fine hairs with incremental differences in stiffness. Rats are placed in a plastic cage with a wire mesh bottom and allowed to acclimate for approximately 30 minutes. To establish the pre-drug baseline, the von Frey hairs are applied perpendicularly through the mesh to the mid-plantar region of the rats' hindpaw with sufficient force to cause slight buckling and held for 6-8 seconds. The applied force has been calculated to range from 0.41 to 15.1 grams. If the paw is sharply withdrawn, it is considered a positive response. A normal animal will not respond to stimuli in this range, but a surgically ligated paw will be withdrawn in response to a 1-2 gram hair. The 50% paw withdrawal threshold is determined using the method of Dixon, W. J., Ann. Rev. Pharmacol. Toxicol. 20:441-462 (1980) hereby incorporated by reference. Tactile allodynia is measured prior to and 15, 30, and 60 minutes after drug administration. The post-drug threshold is compared to the pre-drug threshold and the percent reversal of tactile sensitivity is calculated based on a normal threshold of 15.1 grams.
Table 1 below indicates the degree of pain reversal obtained in the Chung model with exemplary compounds of the invention. […]
For the compound `N[C@@H](C(=O)N1CCCC1)[C@@H](O)c1ccoc1` (racemic) [Compound 27, DL-threo-2-Amino-3-(furan-3-yl)-3-hydroxy-1-(pyrrolidin-1-yl)propan-1-one hydrochloride], the inhibition in vivo at 0.3 mg/kg is 42%.
Same read-out and setting: with `N[C@@H](C(=O)N1CCOCC1)[C@@H](O)c1ccsc1` (racemic) [Compound 230, (±)-threo-2-Amino-3-hydroxy-1-morpholino-3-(thiophen-3-yl)propan-1-one hydrochloride] the figure was 52%; with `N[C@@H](C(=O)N1CCCC1)[C@H](O)c1ccncc1` [Compound 220, (−)-(2R,3R)-2-amino-3-hydroxy-3-(pyridin-4-yl)-1-(pyrrolidin-1-yl)propan-1-one dihydrochloride], 32%.

The same assay, now with this note: Rattus norvegicus, ip, 1 h, 30 μg/kg IP, peak at 60 min post dose, read-out: Peak % Pain reversal: time post dose.
On to `N[C@@H](Cc1ccncc1)C(=O)N1CCCC1` [Compound 240, (S)-2-amino-3-(pyridin-4-yl)-1-(pyrrolidin-1-yl)propan-1-one dihydrochloride], for which the inhibition in vivo at 0.03 mg/kg stood at 70%.
For `N[C@@H](C(=O)N1CCCC1)[C@@H](O)c1cccnc1` (racemic) [Compound 20, DL-threo-2-Amino-3-hydroxy-3-(pyridin-3-yl)-1-(pyrrolidin-1-yl)propan-1-one dihydrochloride], the inhibition in vivo at 0.03 mg/kg was determined as 92%.

The same assay, now with this note: Rattus norvegicus, ip, 1 h, 100 μg/kg IP, peak at 60 min post dose, read-out: Peak % Pain reversal: time post dose.
With `N[C@@H](C(=O)N1CCCC1)[C@@H](O)c1ccc[nH]c1=O` (racemic) [Compound 49, 3-(DL-threo-2-Amino-1-hydroxy-3-oxo-3-pyrrolidin-1-yl-propyl)-1H-pyridin-2-one hydrochloride], the inhibition in vivo at 0.1 mg/kg was determined as 85%.

The assay is the same for the next values; noted with them: Rattus norvegicus, ip, 1 h, 300 μg/kg IP, peak at 60 min post dose, read-out: Peak % Pain reversal: time post dose.
On to `NCCCCCC(=O)N[C@@H](C(=O)N1CCCC1)[C@@H](O)c1ccncc1` (racemic) [Compound 238, 6-amino-N-((±)-threo-1-hydroxy-3-oxo-1-(pyridin-4-yl)-3-(pyrrolidin-1-yl)propan-2-yl)hexanamide], for which the inhibition in vivo at 0.3 mg/kg came to 61%.
Same read-out and setting: with `N[C@@H](C(=O)N1CCCC1)[C@@H](O)c1ccncc1Cl` (racemic) [Compound 43, DL-threo-2-Amino-3-(3-chloropyridin-4-yl)-3-hydroxy-1-(pyrrolidin-1-yl)propan-1-one dihydrochloride] the figure was 96%.
Regarding `N[C@@H](C(=O)N1CCCC1)[C@@H](O)c1ccnc(Cl)c1` (racemic) [Compound 41, DL-threo-2-Amino-3-(2-chloropyridin-4-yl)-3-hydroxy-1-(pyrrolidin-1-yl)propan-1-one dihydrochloride], the inhibition in vivo at 0.3 mg/kg was 70%.
Consider `O=C(N[C@@H](C(=O)N1CCCC1)[C@@H](O)c1ccncc1)OCc1ccccc1` (racemic) [Compound 58, Benzyl DL-threo-3-hydroxy-1-oxo-3-(pyridin-4-yl)-1-(pyrrolidin-1-yl)propan-2-ylcarbamate hydrochloride], for which the inhibition in vivo at 0.3 mg/kg came out at 75%.
On to `O=CN[C@@H](C(=O)N1CCCC1)[C@@H](O)c1ccncc1` (racemic) [Compound 216, N-((±)-threo-1-hydroxy-3-oxo-1-(pyridin-4-yl)-3-(pyrrolidin-1-yl)propan-2-yl)formamide hydrochloride], for which the inhibition in vivo at 0.3 mg/kg stood at 100%.
Take `N[C@@H](C(=O)N1CC=CC1)[C@@H](O)c1ccnc(Cl)c1` (racemic) [Compound 34, DL-threo-2-Amino-3-(2-chloropyridin-4-yl)-3-hydroxy-1-(2H-pyrrol-1 (5H)-yl)propan-1-one dihydrochloride]: the inhibition in vivo at 0.3 mg/kg is 62%.
On the same count and under the same terms, with `N[C@@H](C(=O)N1CCCCC1)[C@@H](O)c1ccncc1` (racemic) [Compound 35, DL-threo-2-Amino-3-hydroxy-3-(pyridin-4-yl)-1-(piperidin-1-yl)propan-1-one dihydrochloride] the figure was 92%.
On the same count and under the same terms, with `N[C@@H](C(=O)N1CCCC1)[C@@H](O)c1ccncc1` [Compound 203, (−)-(2R,3S)-2-Amino-3-hydroxy-3-(pyridin-4-yl)-1-(pyrrolidin-1-yl)propan-1-one dihydrochloride] the figure was 87%; with `O=C([C@H](NCc1cccc(I)c1)[C@@H](O)c1ccncc1)N1CCCC1` [Compound 229, (2R,3S)-2-(3-iodobenzylamino)-3-hydroxy-3-(pyridin-4-yl)-1-(pyrrolidin-1-yl)-propan-1-one dihydrochloride], 53%.
For the compound `COc1ccc(C(=O)N[C@@H](C(=O)N2CCCC2)[C@@H](O)c2ccncc2)cc1` (racemic) [Compound 56, N-(DL-threo-1-Hydroxy-3-oxo-1-(pyridin-4-yl)-3-(pyrrolidin-1-yl)propan-2-yl)-4-methoxy-benzamide hydrochloride], the inhibition in vivo at 0.3 mg/kg is 67%.
For `N[C@@H](C(=O)N1CCCC1)[C@@H](O)c1ccc(I)cc1` (racemic) [Compound 210, (±)-threo-2-Amino-3-hydroxy-3-hydroxy-3-(4-iodophenyl)-1-(pyrrolidin-1-yl)propan-1-one dihydrochloride], the inhibition in vivo at 0.3 mg/kg amounted to 78%.
Still for that read-out and setting: with `O=C([C@H](N[C@@H](CO)c1ccccc1)[C@@H](O)c1ccncc1)N1CCCC1` [Compound 234, (2R,3S)-2-((R)-2-Hydroxy-1-phenylethylamino)-3-hydroxy-3-(pyridin-4-yl)-1-(pyrrolidin-1-yl)propan-1-one dihydrochloride] the figure was 59%; with `NC(C(=O)N1CC[C@@H](F)C1)C(O)c1ccncc1` (stereo partly drawn) [Compound 215, (2S,3R)- & (2R,3S)-2-Amino-1-((R)-3-fluoropyrrolidin-1-yl)-3-hydroxy-3-(pyridin-4-yl)propan-1-one dihydrochlorides], 73%; with `COc1ccc(CN[C@@H](C(=O)N2CCCC2)[C@@H](O)c2ccncc2)cc1` (racemic) [Compound 67, DL-threo-2-(4-Methoxybenzylamino)-3-hydroxy-3-(pyridin-4-yl)-1-(pyrrolidin-1-yl)propan-1-one one], 78%.
For `Cn1ccnc1[C@H](O)[C@@H](N)C(=O)N1CCCC1` (racemic) [Compound 254, (±)-threo-2-Amino-3-hydroxy-3-(1-methyl-1H-imidazol-2-yl)-1-(pyrrolidin-1-yl)propan-1-one dihydrochloride], the inhibition in vivo at 0.3 mg/kg was found to be 62%.
As for `N[C@@H](C(=O)N1CCCC1)[C@@H](O)c1cccc2ccccc12` (racemic) [Compound 29, DL-threo-2-Amino-3-hydroxy-3-(naphthalen-1-yl)-1-(pyrrolidin-1-yl)propan-1-one hydrochloride], the inhibition in vivo at 0.3 mg/kg worked out at 47%.
Still for that read-out and setting: with `N[C@@H](C(=O)N1CCOCC1)[C@@H](O)c1cccnc1` (racemic) [Compound 232, (±)-threo-2-Amino-3-hydroxy-1-morpholino-3-(pyridin-3-yl)propan-1-one dihydrochloride] the figure was 80%.
On the same count and under the same terms, with `O=C(N[C@@H](C(=O)N1CCCC1)[C@@H](O)c1ccncc1)c1ccccc1` (racemic) [Compound 55, N-(DL-threo-1-Hydroxy-3-oxo-1-(pyridin-4-yl)-3-(pyrrolidin-1-yl)propan-2-yl)benzamide hydrochloride] the figure was 58%.

Still in this assay, the particulars now being: Rattus norvegicus, po, 1 h, 30 μg/kg PO, peak at 60 min post dose, read-out: Peak % Pain reversal: time post dose.
Turning to `N[C@@H](C(=O)N1CCCC1)[C@@H](O)c1ccsc1` (racemic) [Compound 23, DL-threo-2-Amino-3-hydroxy-1-(pyrrolidin-1-yl)-3-(thiophen-3-yl)propan-1-one hydrochloride], the inhibition in vivo at 0.03 mg/kg stood at 100%.
